Like-named read-outs stand apart in the source and are kept apart here.
Legend:
SARS-CoV-2 = assay: microbe, parasite or virus in culture; type: cell-based; details: Severe acute respiratory syndrome coronavirus 2, VeroE6/TMPRSS2, 72 h, 50% SARS-CoV-2 infected cell death inhibitory concentration, VeroE6/TMPRSS2 cells, 3 days culture
SARS-CoV-2 3CL protease = SARS-CoV-2 3CL protease (Severe acute respiratory syndrome coronavirus 2, UniProt P0DTD1); assay: biochemical; details: 50% SARS-CoV-2 3CL protease inhibitory concentration, read-out: IC50

SMILES	EC50 (SARS-CoV-2; CellTiter-Glo 2.0)	IC50 (SARS-CoV-2 3CL protease; RapidFire MS)	EC50 (SARS-CoV-2; class symbols)	IC50 (SARS-CoV-2 3CL protease; given as class symbols)
COc1ccc(Nc2nc(=O)n(-c3cncc4ccccc34)c(=O)n2Cc2ccc(F)c(C#N)c2)cc1 [Compound I-0377]	0.0729 µM	0.008 µM		
O=c1[nH]cccc1Cn1c(=O)nc(NC2CCOCC2)n(Cc2cc(F)c(F)c(F)c2)c1=O [Compound I-0132]		2.3 µM	< 1 µM	1 to 10 µM
COc1ccc(Nc2nc(=O)n(Cc3ccc[nH]c3=O)c(=O)n2CC2CCCCC2)cc1 [Compound I-0134]		4 µM	< 1 µM	1 to 10 µM
CC(=O)Nc1nc2cc(Cl)c(Nc3nc(=O)n(Cc4ccc[nH]c4=O)c(=O)n3Cc3cc(F)c(F)c(F)c3)cc2s1 [Compound I-0465]	3.27 µM	0.0042 µM	1 to 10 µM	< 0.1 µM
C[C@H](O)Cn1cc2cc(Nc3nc(=O)n(Cc4cc(Cl)c[nH]c4=O)c(=O)n3Cc3cc(F)c(F)c(F)c3)c(Cl)cc2n1 [Compound I-0402]			1 to 10 µM	< 0.1 µM
Cc1cncc(-n2c(=O)nc(Nc3cc4cn(C)nc4cc3Cl)n(Cc3cc(C#N)ccc3C)c2=O)c1 [II-0596]	0.062 µM	0.0016 µM		
Cn1cnc(Cn2c(=O)nc(Nc3cc4cn(C)nc4cc3Cl)n(Cc3cc(Cl)c(F)cc3Cl)c2=O)n1 [II-0363]			< 1 µM	< 0.1 µM
Cc1cc(F)c(C#N)cc1Cn1c(Nc2cc3cn(C)nc3cc2Cl)nc(=O)n(-c2cncc(N)c2)c1=O [II-0380]			1 to 10 µM	< 0.1 µM
Cc1cncc(-n2c(=O)nc(Nc3ccc4nn(C)cc4c3)n(Cc3cc(C#N)ccc3C)c2=O)c1 [II-0125]	0.22 µM	0.0048 µM		
CNc1nc2cc(Cl)c(Nc3nc(=O)n(Cc4ncn(C)n4)c(=O)n3Cc3cc(F)c(F)cc3F)cc2s1 [II-0048]			< 1 µM	< 0.1 µM
Cn1cc2cc(Nc3nc(=O)n(Cc4cc5ccsc5[nH]c4=O)c(=O)n3Cc3ccc(F)c(C#N)c3)c(Cl)cc2n1 [II-0008]			1 to 10 µM	< 0.1 µM
CNc1nc2cc(Cl)c(Nc3nc(=O)n(Cc4ncn(C)n4)c(=O)n3Cc3cc(F)c(F)c(Cl)c3)cc2o1 [II-0059]			1 to 10 µM	< 0.1 µM
Cc1cncc(-n2c(=O)nc(Nc3cc(-c4ccc[nH]c4=O)sc3C)n(Cc3cc(F)c(F)c(F)c3)c2=O)c1 [II-0289]	16 µM	0.24 µM		
O=c1[nH]c2ncccc2cc1Cn1c(=O)nc(Nc2cc3cn(CCO)nc3cc2Cl)n(Cc2cc(F)c(F)c(F)c2)c1=O [Compound I-0237]	3.39 µM	0.0042 µM		
Cc1nc2cc(Cl)c(Nc3nc(=O)n(Cc4ccc[nH]c4=O)c(=O)n3Cc3cc(F)c(F)c(Cl)c3)cc2n1C [Compound I-0264]			1 to 10 µM	< 0.1 µM
Cc1cncc(-n2c(=O)nc(Nc3cc4c(cc3Cl)OC(C)C4)n(Cc3ccc(F)c(C#N)c3)c2=O)c1 (stereo not shown) [II-0114]			< 1 µM	< 0.1 µM
COc1ccc(Nc2nc(=O)n(Cc3ccc[nH]c3=O)c(=O)n2Cc2cc(F)c(F)c(F)c2)c(OC)c1 [Compound I-0042]			1 to 10 µM	< 0.1 µM
CCn1cc2cc(Nc3nc(=O)n(-c4cncc(Cl)c4)c(=O)n3Cc3cc(C#N)ccc3Cl)ccc2n1 [II-0036]	0.355 µM	0.0083 µM		
Cc1cncc(-n2c(=O)nc(Nc3cc4cn(C)nc4cc3Cl)n(Cc3cc(Cl)cc(C#N)c3)c2=O)c1 [II-0186]			1 to 10 µM	< 0.1 µM

SMILES	EC50 (SARS-CoV-2; CellTiter-Glo 2.0)	IC50 (SARS-CoV-2 3CL protease; RapidFire MS)	EC50 (SARS-CoV-2; class symbols)	IC50 (SARS-CoV-2 3CL protease; given as class symbols)
Cc1cncc(-n2c(=O)nc(Nc3cc4cn(C)nc4cc3Cl)n(Cc3ccc(F)c(C#N)n3)c2=O)c1 [II-0539]			1 to 10 µM	< 0.1 µM
Cc1cncc(-n2c(=O)nc(Nc3cc4cn(C)nc4cc3Cl)n(Cc3cc(C#N)ccc3N)c2=O)c1 [II-0585]			1 to 10 µM	< 0.1 µM
CNc1nc2cc(Cl)c(Nc3nc(=O)n(Cc4ncccn4)c(=O)n3Cc3cc(F)c(F)c(Cl)c3)cc2s1 [II-0297]			1 to 10 µM	< 0.1 µM
Cc1cncc(-n2c(=O)nc(Nc3cc4cn(C)nc4cc3Cl)n(Cc3cc(C#N)ccc3Cc3cccc(F)c3)c2=O)c1 [II-0027]			< 1 µM	< 0.1 µM
Cn1cnc(Cn2c(=O)nc(Nc3cc4cn(CC5CC5)nc4cc3Cl)n(Cc3cc(F)c(F)cc3F)c2=O)n1 [II-0352]			< 1 µM	< 0.1 µM
Cc1cncc(-n2c(=O)nc(Nc3ccc4c(c3)CCCO4)n(Cc3ccc(F)c(C#N)c3)c2=O)c1 [II-0166]			< 1 µM	< 0.1 µM
Cc1cncc(-n2c(=O)nc(Nc3cc4cn(C)nc4cc3Cl)n(Cc3cccc(F)c3C)c2=O)c1 [II-0171]			< 1 µM	< 0.1 µM
Cc1cncc(-n2c(=O)nc(Nc3cc4c(C)n(C)nc4cc3Cl)n(Cc3ccc(F)c(C#N)c3)c2=O)c1 [II-0436]			< 1 µM	< 0.1 µM
Cn1cc2cc(Nc3nc(=O)n(-c4cncc(Cl)c4)c(=O)n3Cc3cc(F)c(F)cc3F)ccc2n1 [II-0288]	2.4 µM	0.099 µM		
Cn1cc2cc(Nc3nc(=O)n(Cc4ccc[nH]c4=O)c(=O)n3Cc3cc(F)c(F)c(F)c3)c(Cl)cc2n1 [Compound I-0436]			< 1 µM	< 0.1 µM
COc1ccc(Nc2nc(=O)n(-c3cncc4ccccc34)c(=O)n2Cc2ccc(F)c(C#N)c2)c(F)c1 [II-0178]			< 1 µM	< 0.1 µM
O=c1nc(Nc2cc3cn(CCO)nc3cc2Cl)n(Cc2cc(F)c(F)cc2F)c(=O)n1-c1cncc2ccccc12 [II-0032]			< 1 µM	< 0.1 µM
Cc1cncc(-n2c(=O)nc(Nc3cc4cn(CC(=O)N(C)C)nc4cc3Cl)n(Cc3cc(F)c(F)c(F)c3)c2=O)c1 [II-0281]			1 to 10 µM	< 0.1 µM
Cc1nc2cc(Br)c(Nc3nc(=O)n(Cc4ncn(C)n4)c(=O)n3Cc3cc(F)c(F)cc3F)cc2s1 [II-0417]			1 to 10 µM	< 0.1 µM
N#Cc1cc(Cn2c(Nc3ccc4nn(CC(F)F)cc4c3)nc(=O)n(-c3cncc4ccccc34)c2=O)ccc1F [Compound I-0352]			< 1 µM	< 0.1 µM
Cc1nc2cc(Cl)c(Nc3nc(=O)n(Cc4ccc[nH]c4=O)c(=O)n3Cc3cc(F)c(F)c(F)c3)cc2n1CC(F)F [Compound I-0444]	3.94 µM	0.0051 µM	1 to 10 µM	< 0.1 µM
Cn1cc2cc(Nc3nc(=O)n(Cc4cc5cccnc5[nH]c4=O)c(=O)n3Cc3cc(F)c(F)c(F)c3)c(Cl)cc2n1 [Compound I-0236]			< 1 µM	< 0.1 µM
O=c1[nH]cccc1Cn1c(=O)nc(Nc2cc3cn(CCCOC(F)(F)F)nc3cc2Cl)n(Cc2cc(F)c(F)c(F)c2)c1=O [Compound I-0400]			1 to 10 µM	< 0.1 µM
Cc1cncc(-n2c(=O)nc(Nc3cc4cn(C)nc4cc3Cl)n(Cc3cc(Br)cc(C#N)c3)c2=O)c1 [II-0210]			1 to 10 µM	< 0.1 µM

SMILES	EC50 (SARS-CoV-2; CellTiter-Glo 2.0)	IC50 (SARS-CoV-2 3CL protease; RapidFire MS)	EC50 (SARS-CoV-2; class symbols)	IC50 (SARS-CoV-2 3CL protease; given as class symbols)
Cn1cnc(Cn2c(=O)nc(Nc3cc4cn(CC(F)F)nc4cc3F)n(Cc3cc(Cl)c(F)cc3F)c2=O)n1 [II-0459]			1 to 10 µM	< 0.1 µM
Cc1cncc(-n2c(=O)nc(Nc3cc4cn(C[C@H](C)O)nc4cc3Cl)n(Cc3cc(F)c(F)c(F)c3)c2=O)c1 [II-0101]			< 1 µM	< 0.1 µM
COc1ccc(Nc2nc(=O)n(Cc3ccc[nH]c3=O)c(=O)n2Cc2cc(Cl)cc(Cl)c2)cc1 [Compound I-0213]			1 to 10 µM	< 0.1 µM
Cn1cnc(Cn2c(=O)nc(Nc3cc4sc(NCC(F)F)nc4cc3Cl)n(Cc3cc(Cl)c(F)cc3F)c2=O)n1 [II-0262]			1 to 10 µM	< 0.1 µM
Cc1cc2nn(C)cc2cc1Nc1nc(=O)n(-c2cccc3cnccc23)c(=O)n1Cc1cc(F)c(F)c(F)c1 [Compound I-0369]			1 to 10 µM	< 0.1 µM
O=c1[nH]cccc1Cn1c(=O)nc(Nc2cc3cn(CC(F)F)nc3cc2Cl)n(Cc2cc(F)c(F)c(F)c2)c1=O [Compound I-0284]			< 1 µM	< 0.1 µM
Cn1cnc(Cn2c(=O)nc(Nc3cc4cn(C)nc4cc3Cl)n(Cc3ccc(F)c(F)c3F)c2=O)n1 [II-0190]			1 to 10 µM	< 0.1 µM
Cn1cc2cc(Nc3nc(=O)n(Cc4ccc[nH]c4=O)c(=O)n3Cc3cc(F)c(F)c(C#N)c3)c(Cl)cc2n1 [Compound I-0012]			1 to 10 µM	< 0.1 µM
CNc1nc2cc(Cl)c(Nc3nc(=O)n(-c4cncc(Cl)c4)c(=O)n3Cc3cc(C#N)c(F)cn3)cc2s1 [II-0126]			1 to 10 µM	< 0.1 µM
Cn1cnc(Cn2c(=O)nc(Nc3cc4cn(C)nc4cc3Cl)n(Cc3cc(C#N)c(F)cc3Cl)c2=O)n1 [II-0088]			1 to 10 µM	< 0.1 µM
Cn1cc2cc(Nc3nc(=O)n(-c4cncc(Cl)c4)c(=O)n3Cc3cc(C#N)c(F)cc3Cl)ccc2n1 [II-0282]	0.26 µM	0.0088 µM		
Cn1cnc(Cn2c(=O)nc(Nc3cc4cn(C)nc4cc3Cl)n(Cc3cc(Cl)ccc3F)c2=O)n1 [II-0361]			< 1 µM	< 0.1 µM
Cc1cncc(-n2c(=O)nc(N3CC4CCC3CO4)n(Cc3cc(F)c(F)c(F)c3)c2=O)c1 (stereo not shown) [II-0375]	21.6 µM	3.8 µM		
Cc1cncc(-n2c(=O)nc(Nc3ccc4nc(C)sc4c3)n(Cc3ccc(F)c(C#N)c3)c2=O)c1 [II-0197]			< 1 µM	< 0.1 µM
COc1ccc(Nc2nc(=O)n(Cc3cc(Br)c[nH]c3=O)c(=O)n2Cc2cc(F)c(F)c(F)c2)cc1 [Compound I-0310]			1 to 10 µM	< 0.1 µM
Cc1c2cc(Nc3nc(=O)n(-c4cncc(Cl)c4)c(=O)n3Cc3ccc(F)c(C#N)c3)ccc2nn1C [II-0267]			1 to 10 µM	< 0.1 µM
CNc1nc2cc(Cl)c(Nc3nc(=O)n(-c4cncc(C)c4)c(=O)n3Cc3cc(C#N)c(F)cn3)cc2s1 [II-0534]			1 to 10 µM	< 0.1 µM
Cn1cnc(Cn2c(=O)nc(Nc3cc4cn(CC(C)(C)O)nc4cc3Cl)n(Cc3cc(F)c(F)c(Cl)c3)c2=O)n1 [II-0305]			1 to 10 µM	< 0.1 µM

From patent publication US12559474B2, “Triazine derivatives having virus replication inhibitory activity and pharmaceutical composition comprising the same” (priority 2021, dated 2026)
